Legend:
Type in all cases: in vivo
[1] = test system: barnyardgrass (Echinochloa crus-galli); experiment: Test D flooded paddy test, visual plant response rating; conditions: 250 g ai/ha, scale 0 to 100 (0 no effect, 100 complete control), 13 to 15 d
Outline: (§1)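 2-leaf plants, flooded 3 cm, cpd into paddy water; greenhouse 13–15 d; visual rating vs controls, 0 = no effect, 100 = complete control; dash = no result.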

[2] = test system: sedge umbrella (small-flower umbrella sedge, Cyperus difformis); experiment: as above; conditions: 250 g ai/ha, scale 0 to 100 (0 no effect, 100 complete control), 13 to 15 d
Outline: as §1

rice (Oryza sativa) = experiment: as above; conditions: 250 g ai/ha, scale 0 to 100 (0 no effect, 100 complete control), 13 to 15 d
Outline: as §1

[3] = test system: duck salad (Heteranthera limosa); experiment: as above; conditions: 250 g ai/ha, scale 0 to 100 (0 no effect, 100 complete control), 13 to 15 d
Outline: as §1

corn (Zea mays) = experiment: Test C postemergence, visual plant response rating
Outline: (§2)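 Compounds in a non-phytotoxic solvent with surfactant were applied as a directed soil spray preemergence or to 2–10 cm, one- to two-leaf plants postemergence, in loam–sand soil. After about 10 d in a greenhouse, injury was visually rated against untreated controls on a 0–100 scale (100 = complete control).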

[4] = test system: barnyardgrass (Echinochloa crus-galli); experiment: Test C postemergence, visual plant response rating
Outline: as §2

[5] = test system: wheat (Triticum aestivum); experiment: Test C postemergence, visual plant response rating
Outline: as §2

[6] = test system: pigweed (Amaranthus retroflexus); experiment: Test C postemergence, visual plant response rating
Outline: as §2

[7] = test system: Italian ryegrass (Lolium mutiflorum); experiment: Test C postemergence, visual plant response rating
Outline: as §2

[8] = test system: foxtail, giant (giant foxtail, Setaria faberi); experiment: Test C postemergence, visual plant response rating
Outline: as §2

[9] = test system: blackgrass (Alopecurus myosuroides); experiment: Test C postemergence, visual plant response rating
Outline: as §2

[10] = test system: ragweed (common ragweed, Ambrosia artemisiifolia); experiment: Test C postemergence, visual plant response rating
Outline: as §2

[11] = test system: galium (catchweed bedstraw, Galium aparine); experiment: Test C postemergence, visual plant response rating
Outline: as §2

kochia (Bassia scoparia) [12] = experiment: Test C postemergence, visual plant response rating
Outline: as §2

[13] = test system: barnyardgrass (Echinochloa crus-galli); experiment: Test C preemergence, visual plant response rating; conditions: Test C, 0 is no effect, 100 is complete control
Outline: as §2

[14] = test system: pigweed (Amaranthus retroflexus); experiment: Test C preemergence, visual plant response rating; conditions: Test C, 0 is no effect, 100 is complete control
Outline: as §2

[15] = test system: Italian ryegrass (Lolium mutiflorum); experiment: Test C preemergence, visual plant response rating; conditions: Test C, 0 is no effect, 100 is complete control
Outline: as §2

[16] = test system: foxtail, giant (giant foxtail, Setaria faberi); experiment: Test C preemergence, visual plant response rating; conditions: Test C, 0 is no effect, 100 is complete control
Outline: as §2

[17] = test system: ragweed (common ragweed, Ambrosia artemisiifolia); experiment: Test C preemergence, visual plant response rating; conditions: Test C, 0 is no effect, 100 is complete control
Outline: as §2

kochia (Bassia scoparia) [18] = experiment: Test C preemergence, visual plant response rating; conditions: Test C, 0 is no effect, 100 is complete control
Outline: as §2

[19] = Test C, postemergence, 125 g ai/ha

SMILES	Plant response rating, Barnyardgrass (Flood) [1]	Plant response rating, Sedge, Umbrella (Flood) [2]	Plant response rating, Rice (Flood) (rice (Oryza sativa))	Plant response rating, Ducksalad (Flood) [3]	Corn plant response rating (0 to 100 scale) (corn (Zea mays); Postemergence, 31 g ai/ha)	Corn plant response rating (0 to 100 scale) (corn (Zea mays); [19])	Barnyardgrass plant response rating (0 to 100 scale) ([4]; Postemergence, 31 g ai/ha)	Barnyardgrass plant response rating (0 to 100 scale) [4, 19]	Wheat plant response rating (0 to 100 scale) ([5]; Postemergence, 31 g ai/ha)	Wheat plant response rating (0 to 100 scale) [5, 19]	Pigweed plant response rating (0 to 100 scale) ([6]; Postemergence, 31 g ai/ha)	Pigweed plant response rating (0 to 100 scale) [6, 19]	Ryegrass, Italian plant response rating (0 to 100 scale) ([7]; Postemergence, 31 g ai/ha)	Ryegrass, Italian plant response rating (0 to 100 scale) [7, 19]	Foxtail, Giant plant response rating (0 to 100 scale) ([8]; Postemergence, 31 g ai/ha)	Foxtail, Giant plant response rating (0 to 100 scale) [8, 19]	Blackgrass plant response rating (0 to 100 scale) ([9]; Postemergence, 31 g ai/ha)	Blackgrass plant response rating (0 to 100 scale) [9, 19]	Ragweed plant response rating (0 to 100 scale) ([10]; Postemergence, 31 g ai/ha)	Ragweed plant response rating (0 to 100 scale) [10, 19]	also measured
C#CCO/N=C(\c1cccc(Br)c1)c1c(O)c(C)nn(C)c1=O [Compound 278]	0	0	0	0	0	20	40	50	40	80	30	70	70	80	30	70	50	90	60	80	Galium plant response rating (0 to 100 scale) ([11]; Postemergence, 31 g ai/ha): 80; Galium plant response rating (0 to 100 scale) [11, 19]: 90; Kochia plant response rating (0 to 100 scale) (kochia (Bassia scoparia) [12]; Postemergence, 31 g ai/ha): 40; Kochia plant response rating (0 to 100 scale) (kochia (Bassia scoparia) [12]; [19]): 80; Barnyardgrass plant response rating (0 to 100 scale) ([13]; 31 g ai/ha): 0; Barnyardgrass plant response rating (0 to 100 scale) ([13]; 125 g ai/ha): 20; Pigweed plant response rating (0 to 100 scale) ([14]; 31 g ai/ha): 0; Pigweed plant response rating (0 to 100 scale) ([14]; 125 g ai/ha): 0; Ryegrass, Italian plant response rating (0 to 100 scale) ([15]; 31 g ai/ha): 20; Ryegrass, Italian plant response rating (0 to 100 scale) ([15]; 125 g ai/ha): 100; Foxtail, Giant plant response rating (0 to 100 scale) ([16]; 31 g ai/ha): 30; Foxtail, Giant plant response rating (0 to 100 scale) ([16]; 125 g ai/ha): 60; Ragweed plant response rating (0 to 100 scale) ([17]; 31 g ai/ha): 10; Ragweed plant response rating (0 to 100 scale) ([17]; 125 g ai/ha): 40; Kochia plant response rating (0 to 100 scale) (kochia (Bassia scoparia) [18]; 31 g ai/ha): 0; Kochia plant response rating (0 to 100 scale) (kochia (Bassia scoparia) [18]; 125 g ai/ha): 70
CO/N=C(\c1c(O)c(C)nn(C)c1=O)c1cc(SC)cc2ccccc12 [Compound 279]	0	0	0	0	0	0	0	0	0	0	0	10	0	0	0	0	0	0	0	10	Galium plant response rating (0 to 100 scale) ([11]; Postemergence, 31 g ai/ha): 0; Galium plant response rating (0 to 100 scale) [11, 19]: 0; Kochia plant response rating (0 to 100 scale) (kochia (Bassia scoparia) [12]; Postemergence, 31 g ai/ha): 0; Kochia plant response rating (0 to 100 scale) (kochia (Bassia scoparia) [12]; [19]): 30; Barnyardgrass plant response rating (0 to 100 scale) ([13]; 31 g ai/ha): 0; Barnyardgrass plant response rating (0 to 100 scale) ([13]; 125 g ai/ha): 0; Pigweed plant response rating (0 to 100 scale) ([14]; 31 g ai/ha): 0; Pigweed plant response rating (0 to 100 scale) ([14]; 125 g ai/ha): 0; Ryegrass, Italian plant response rating (0 to 100 scale) ([15]; 31 g ai/ha): 0; Ryegrass, Italian plant response rating (0 to 100 scale) ([15]; 125 g ai/ha): 0; Foxtail, Giant plant response rating (0 to 100 scale) ([16]; 31 g ai/ha): 0; Foxtail, Giant plant response rating (0 to 100 scale) ([16]; 125 g ai/ha): 0; Ragweed plant response rating (0 to 100 scale) ([17]; 31 g ai/ha): 0; Ragweed plant response rating (0 to 100 scale) ([17]; 125 g ai/ha): 0; Kochia plant response rating (0 to 100 scale) (kochia (Bassia scoparia) [18]; 31 g ai/ha): 0; Kochia plant response rating (0 to 100 scale) (kochia (Bassia scoparia) [18]; 125 g ai/ha): 0

Source: patent US20210045385A1, “PYRIDAZINONE-SUBSTITUTED KETOXIMES AS HERBICIDES” (FMC Corporation, priority 2018, published 2021)
